According to paper PMC3898886, “P-glycoprotein (Mdr1a/1b) and breast cancer resistance protein (Bcrp) decrease the uptake of hydrophobic alkyl triphenylphosphonium cations by the brain” (Biochimica et Biophysica Acta, 2013):

Assays:
P-gp = assay: uptake of [3H] MitoF into tissues after pretreatment with CsA; format: in vivo, female C57/BL6 mice; settings: tissues 60 min later
Description: To assess the effects of co-administration of cyclosporin A (CsA) on the uptake of MitoF, female C57/BL6 mice (~ 20 g) were used. The mice were injected with CsA (Sandimmun, Novartis supplied as 50 mg/mL solution which was diluted 1:4 in sterile PBS and injected 100 μL at 50 mg/kg) IV by tail vein injection, or with PBS carrier, followed 30 min later with [^3H] MitoF (100 nmol) by IV tail vein injection and 60 min later the mice were killed and the tissues harvested. All procedures were approved by the University of Otago animal ethics committee.

[1] = published value; cited from earlier work
[2] = system: P-glycoprotein (Mdr1a/1b) and breast cancer resistance protein (Bcrp); assay: tissue and blood content of [3H] TPP compound after IV injection, transgenic mice lacking ABC transporters, compared with wild type; settings: for uptake into the brain, transgenic compared to wild type mice: radioactivity in brain over 20 h; for ratio of compound in the brain relative to the blood, transgenic versus WT: 5 h after IV injection of 100 nmol; for AUC for accumulation into the brain: transgenic mice
Description: (§1) For injection the mice were placed in a restraining tube and injected by the tail vein with 100 nmol [^3H] compound (~ 400–500 nCi) in 100 μL sterile phosphate buffered saline (PBS) supplemented with 10% DMSO. A sample of the [^3H] compound solution injected was retained to calculate the specific activity, which was subsequently used to determine the tissue contents of the compound. Two WT mice and two transgenic mice were injected for each compound for each time point. […] At the indicated times after injection, the mice were killed by cervical dislocation and a blood sample of ~ 100–200 μL was obtained by cardiac puncture. The organs were then removed, cleared of blood by cutting into pieces and rinsing with saline, transferred to pre-chilled Eppendorf tubes on ice, weighed and stored at − 80 °C until processing. The tissues taken were: heart, kidneys, liver, brain, skeletal muscle (gastrocnemius) and white adipose tissue (subcutaneous). […] The mice were monitored after injection to ensure no pathology or distress.
Tissues were thawed at room temperature and transferred to 50 mL Falcon tubes. Ice-cold methanol (~ 4 °C; 1 mL/100 mg tissue wet weight) was added to the tissue and the tissue homogenised using an Ultra Turrax homogeniser (2 × 30 s on ice). The homogenate was transferred in 1 mL batches to 1.5 mL Eppendorf tubes and centrifuged (10,000 ×g for 8 min at 4 °C). The methanol extract was decanted into a 20 mL glass scintillation vial (Wheaton) and the methanol evaporated under a stream of N2. Further ice-cold methanol (1 mL/100 mg) was added to the tissue homogenate pellets, vortexed for 1 min, centrifuged as above and the methanol extract decanted to a fresh 20 mL glass scintillation vial and evaporated. This procedure was repeated 3 more times to give 5 extracts per tissue sample. […] Scintillant (OptiPhase HiSafe II; 10 mL) was added to each vial, [^3H] DPM content measured in a scintillation counter (LKB Wallac 1217 Rackbeta) using appropriate quench corrections and the total amount of radioactivity per sample calculated. The specific activity of the injected [^3H] compound was then used to calculate the tissue content as mol compound/g wet weight tissue.

[3] = tissue and blood content of [3H] TPP compound after IV tail vein injection, wild type mice; settings: 100 nmol IV; for uptake by adipose tissue / uptake by the heart / uptake by the kidneys: wild type and transgenic mice; for AUC for accumulation into the brain: WT mice
Description: as §1
Tissues were thawed at room temperature and transferred to 50 mL Falcon tubes. Ice-cold methanol (~ 4 °C; 1 mL/100 mg tissue wet weight) was added to the tissue and the tissue homogenised using an Ultra Turrax homogeniser (2 × 30 s on ice). The homogenate was transferred in 1 mL batches to 1.5 mL Eppendorf tubes and centrifuged (10,000 ×g for 8 min at 4 °C). The methanol extract was decanted into a 20 mL glass scintillation vial (Wheaton) and the methanol evaporated under a stream of N2. Further ice-cold methanol (1 mL/100 mg) was added to the tissue homogenate pellets, vortexed for 1 min, centrifuged as above and the methanol extract decanted to a fresh 20 mL glass scintillation vial and evaporated. This procedure was repeated 3 more times to give 5 extracts per tissue sample. […] Scintillant (OptiPhase HiSafe II; 10 mL) was added to each vial, [^3H] […] The specific activity of the injected [^3H] compound was then used to calculate the tissue content as mol compound/g wet weight tissue.

[4] = cited from earlier work
[5] = monitoring of mice after IV injection for pathology or distress; format: in vivo; settings: 100 nmol IV
Description: as §1

[6] = system: P-gp isoforms Mdr1a and Mdr1b; set-up: method as in PMID 19722701; settings: cited from earlier work
[7] = 100 nmol IV, 1 to 48 h post injection
[8] = 100 nmol IV, 1 to 20 h post injection

Compound: FCCCCCCCCCCC[P+](c1ccccc1)(c1ccccc1)c1ccccc1 [MitoF, Fluoroundecyltriphenylphosphonium]
- effect of CsA on uptake into the brain, muscle, fat, heart or kidney (P-gp; CsA 50 mg/kg IV 30 min before 100 nmol [3H] MitoF IV): did not affect
- effect of CsA on uptake into the liver (P-gp; CsA 50 mg/kg IV 30 min before 100 nmol [3H] compound IV): increase uptake
- octan-1-ol/PBS partition coefficient [1]: 740 ± 100
- uptake in the liver, transgenic mice compared to controls ([2]; 100 nmol IV): increase in the uptake
- uptake into heart, kidney and white adipose tissue, transgenic versus wild type mice ([2]; 100 nmol IV): no difference
- increase of brain AUC, transgenic versus WT [2, 7]: ~ 9 fold
- uptake into the brain, transgenic compared to wild type mice ([2]; 100 nmol IV): greater uptake into the brain
- ratio of compound in the brain relative to the blood, transgenic versus WT [2]: increased uptake
- AUC for accumulation into the brain [2, 7]: 16.6 nmol·h/g wet weight
- uptake by adipose tissue [3]: lower uptake
- uptake by the heart [3]: less extensive uptake
- uptake by the kidneys [3]: extensive uptake
- AUC for accumulation into the brain ([3]; 1 to 48 h post injection): 1.9 nmol·h/g wet weight

Compound: COC1=C(OC)C(=O)C(CCCCCCCCCC[P+](c2ccccc2)(c2ccccc2)c2ccccc2)=C(C)C1=O [MitoQ, mitoquinone]
- octan-1-ol/PBS partition coefficient [1]: 2760
- uptake in the liver, transgenic mice compared to controls ([2]; 100 nmol IV): increase in the uptake
- uptake into heart, kidney and white adipose tissue, transgenic versus wild type mice ([2]; 100 nmol IV): no difference
- increase of brain AUC, transgenic versus WT [2, 8]: ~ 4 fold
- uptake into the brain, transgenic compared to wild type mice ([2]; 100 nmol IV): greater uptake into the brain
- ratio of compound in the brain relative to the blood, transgenic versus WT [2]: increased uptake
- AUC for accumulation into the brain [2, 8]: 2.3 nmol·h/g wet weight
- effect of CsA on biliary excretion [4]: inhibited
- proportion of an IV dose excreted by the biliary pathway ([4]; within 4 h): 25%
- uptake by adipose tissue [3]: lower uptake
- uptake by the heart [3]: less extensive uptake
- uptake by the kidneys [3]: extensive uptake
- AUC for accumulation into the brain ([3]; 1 to 20 h post injection): 0.6 nmol·h/g wet weight
- toxicity of the injected amount [5]: non-toxic

Compound: C[P+](c1ccccc1)(c1ccccc1)c1ccccc1 [TPMP, methyltriphenylphosphonium, reference compound]
- uptake in the liver, transgenic mice compared to controls ([2]; 100 nmol IV): not
- change of brain AUC, transgenic versus WT ([2]; 100 nmol IV, 1 to 5 h post injection): unchanged
- uptake into the brain, transgenic compared to wild type mice ([2]; 100 nmol IV): no difference
- uptake by adipose tissue [3]: lower uptake
- uptake by the heart [3]: less extensive uptake
- AUC for accumulation into the brain ([3]; 1 to 5 h post injection): 0.87 nmol·h/g wet weight

Compound: c1ccc([P+](c2ccccc2)(c2ccccc2)c2ccccc2)cc1 [tetraphenylphosphonium cation, tetraphenylphosphonium]
- effect of ablation of Mdr1a and Mdr1b on uptake across the BBB [6]: did not increase
